Assay results: patent US9585957B2, “Adenosine receptor agonists and antagonists to modulate T cell responses” (THE JOHNS HOPKINS UNIVERSITY, priority 2007, dated 2017)

Legend:
[1] = system: 6.5+ T cells in C3HA mice; assay: In vivo suppression: second transfer of lethal numbers of clonotypic 6.5+ T cells into surviving C3HA mice; settings: mice that survived as a result of CGS treatment; no drug at second transfer (FIG. 5d)
Experimental: It has been shown that mice that survive the initial transfer of donor T cells can survive subsequent transfer of higher numbers of clonotypic T cells. To determine if adenosine mediates the formation of T regulatory cells, in vivo, we gave the surviving mice from FIG. 4a a transfer of […] clonotypic T cells 4-6 weeks after the first transfer. No CGS is administered upon the second transfer.
Tests were conducted to determine if the CGS-induced clonotypic regulatory cells could protect the mice upon subsequent rechallenge with a second injection of clonotypic cells. An in vivo suppression assay was performed by adoptively transferring uniformly lethal numbers of clonotypic 6.5^+ T cells (2.5×10^6) into mice that had survived the initial adoptive transfer (and developed regulatory T cells) (FIG. 5d).

LAG-3 = LAG-3 expression by RT-PCR in 6.5+ T cells sorted from CGS-treated C3HA mice; format: in vivo; settings: T cells from CGS-treated versus vehicle-treated C3HA mice (FIG. 5a)
Experimental: For in vivo studies, recipient C3HA mice were given 1.2×10^6 6.5^+ donor T cells as described above. On Day 3, donor T cells were sorted and cDNA generated as above. RT-PCR was performed as previously described (Safford et al. Nat Immunol. 2005; 6:472-480).
Recipient mice are given 1.2×10^6 donor T cells as described above. On Day 4, cells from spleens and lymph nodes are harvested and pooled. They are enriched for CD4^+ T cells via negative selection using biotinylated anti-CD8 (Ly-2, 53-6.7), anti-B220 (RA3-6B2) and anti-Thy 1.2(30-H12) antibodies (all from BD Biosciences PharMingen), and MACS streptavidin microbeads and AutoMACS column (Miltenyi Biotech) to deplete CD8^+ T cells, B cells and recipient cells (Thy 1.2′). The remaining cells are then sorted on Thy 1. I and CD4 using FACSAria cell sorter to yield a CD4′, 6.5′ T cell population of greater than 95% purity. RT-PCR was performed as previously described’.

[2] = system: 6.5 TCR transgenic T cells; assay: Anergy and LAG-3 induction in primary 6.5 TCR transgenic CD4+ T cells incubated with HA and CGS, then rechallenged; format: cell-based, mice
Experimental: Splenocytes and lymphocytes from A2a receptor wt or null 6.5^+ mice (see below) were harvested and enriched for CD4^+ T cells via negative selection with the CD4^+ T cell isolation kit and LS MACs column (all from Miltenyi Biotech, Auburn, Calif.). […] The T cells were rechallenged for 3-4 hours with 100 ug/mL HA class II peptide, GolgiStop (BD PharMingen) and irradiated APCs.
The cells were harvested, mRNA isolated with Trizol and cDNA was generated. RT-PCR was performed as previously described (Safford et al. Nat Immunol. 2005; 6:472-480).
Splenocytes and lymphocytes from A2a receptor wt or null, 6.5^+ mice were harvested and enriched for CD4′ T cells via negative selection with the CD4^+ T cell isolation kit and LS MACs column (all from Miltenyi Biotech, Auburn, Calif.). […] Irradiated splenocytes from mice of the same A2a receptor genotype were used as APCs, at a 10:1 ratio with T cells. After 3 days, the T cells were harvested and isolated via a ficoll gradient, washed extensively and immediately rechallenged for intracellular staining Briefly, the 1×10^5 T cells were stimulated for 3-4 hours with 5×10^5 irradiated A2a receptor wt APCs, […] HA class II peptide and a 1:1000 dilution of GolgiStop (BD PharMingen), in a total volume of […]. After the stimulation, the cells were washed, stained with anti-6.5 and anti-CD4 antibodies, permeablized and fixed, then stained with anti-IFN-y antibody. Finally, the cells were washed and IFN-y production of […], 6.5^+ T cells was analyzed by flow cytometry.

[3] = system: 6.5+ T cells in C3HA mice; assay: Ex vivo tolerance studies: in vitro rechallenge of T cells harvested from vehicle- or CGS-treated C3HA mice
Experimental: 1.2×10^6 clonotypic 6.5^+ T cells were adoptive transferred into C3HA recipient mice as described above. On the second or third day (as noted) after transfer the splenocytes and lymphocytes were harvested and pooled. 2×10^5 of the pooled cells were incubated in 96-well round bottom plates with varying concentrations of HA class II peptide for 24 hours. A portion of the supernatant were withdrawn and later assayed for IL-2 and IFN-γ productions by ELISA. The wells were then pulsed with [^3H]thymidine for 16 hours and proliferation determined by tritium incorporation, as described above. All samples were performed in triplicate.

[4] = system: ERK phosphorylation, jun B, AP-1; assay: Western blot for phospho-ERK and jun B, and EMSA for AP-1, after T cell stimulation with or without CGS; format: cell-based, mice
Experimental: For phospho-ERK and total ERK Western blots, splenocytes from 6.5^+ mice were stimulated overnight with 10 ug/mL HA class II peptide then harvested and enriched for CD4^+ T cells. CD4^+ purified T cells were then stimulated in 500 uL with soluble anti-CD3 (10 ug/mL) and soluble anti-CD28 (1:20 dilution).
Nuclear extracts from CD4^+ purified 6.5^+ T cells that were prepared. The AP-1 probe was: 5′-CGCTTGATGACTCAGCCGGAA-3′. The NFkB probe was: 5′-AGTTGAGGGGACTTTCCCAGGC-3′.

CCNC(=O)[C@H]1O[C@@H](n2cnc3c(N)nc(NCCc4ccc(CCC(=O)O)cc4)nc32)[C@H](O)[C@@H]1O [CGS, 2-p-(2-carboxyethyl)phenethyl-amino-5-N-ethyl-carboxamidoadenosine]
survival of the second adoptive transfer [1]: 100%
kinetics of LAG-3 expression in T cells (LAG-3): quicker and more robust
IFN-γ production upon rechallenge by intracellular staining ([2]; A2a receptor Wt 6.5 T cells, HA with 1 μM CGS during primary stimulation (FIG. 3a)): hyporesponsive upon subsequent stimulation
CGS-induced anergy in A2a receptor null T cells ([2]; A2a receptor null 6.5 T cells, HA with 1 μM CGS (FIG. 3a)): resistant to CGS-induced anergy
LAG-3 expression ([2]; CD4+ 6.5+ primary T cells, irradiated APCs and HA, 1 μM CGS, 3 days, mRNA (FIG. 3b)): increase in LAG-3 expression
induction of LAG-3 with exogenous IL-2 added ([2]; CGS plus exogenous IL-2): abrogated
proliferation and cytokine production of harvested cells, two days after adoptive transfer ([3]; CGS-treated versus vehicle-treated mice, no CGS during rechallenge): equal proliferation and cytokine production
proliferation following in vitro stimulation, Day 3 ([3]; T cells from CGS-treated versus vehicle-treated mice, no CGS during rechallenge (FIG. 4b)): significant reduction in proliferation
IFN-γ production following in vitro stimulation, Day 3 ([3]; T cells from CGS-treated versus vehicle-treated mice, no CGS during rechallenge (FIG. 4c)): significant reduction
ERK phosphorylation ([4]; Signal 1+2, 1 μM CGS (FIG. 3d)): inhibited ERK phosphorylation
jun B expression in the nucleus ([4]; T cell stimulation, 1 μM CGS (FIG. 3e)): reduced jun B expression
AP-1 binding (EMSA) ([4]; T cell stimulation, 1 μM CGS (FIG. 3f)): lowered AP-1 binding
